Assay results from patent publication US20080275018A1, “ANTIBACTERIAL AMIDE-MACROCYCLES V” (AiCuris GmbH & Co. KG, priority 2005, published 2008).
Where a name gives a salt, the structure may show the parent alone.

Columns and labels:
[1] = system: S. aureus 133; experiment: Minimum inhibitory concentration (MIC), S. aureus 133; format: cell-based, Staphylococcus aureus; conditions: Staphylococcus aureus, 133, read-out: MIC S. aureus 133
Description: (§1) The minimum inhibitory concentration (MIC) is the minimum concentration of an antibiotic with which the growth of a test microbe is inhibited over 18-24 h. The inhibitor concentration can in these cases be determined by standard microbiological methods (see, for example, The National Committee for Clinical Laboratory Standards. Methods for dilution antimicrobial susceptibility tests for bacteria that grow aerobically; approved standard-fifth edition. NCCLS document M7-A5 [ISBN 1-56238-394-9]. NCCLS, 940 West Valley Road, Suite 1400, Wayne, Pa. 19087-1898 USA, 2000). The test substances are thereby initially provided in 1:2 dilution series into 96-well round-bottom microtiter plates (Greiner) double-concentrated in 50 μl of test medium. The aerobically growing test microbes (e.g. staphylococci and enterococci), which are incubated overnight on Columbia blood agar plates (Becton-Dickinson), are, after resuspension in 0.9% NaCl, adjusted to a microbe count of about 5×10^7 microbes/ml and then diluted 1:150 in cation-adjusted MH medium (test medium). 50 μL of this suspension are pipetted onto the test preparations provided in the microtiter plates. The cultures are incubated at 37° C. for 18-24 hours. For microaerophilically growing microbes (e.g. streptococci), 2% lysed horse blood in the final concentration is added to the medium and the cultures are incubated in the presence of 5% CO2. The lowest substance concentration in each case at which no visible bacterial growth occurs any longer is defined as the MIC and is reported in μg/ml.
(§2) The minimum inhibitory concentration (MIC) is the minimum concentration of an antibiotic with which the growth of a test microbe is inhibited over 18-24 h. The inhibitor concentration can in these cases be determined by standard microbiological methods (see, for example, The National Committee for Clinical Laboratory Standards. Methods for dilution antimicrobial susceptibility tests for bacteria that grow aerobically; approved standard-fifth edition. NCCLS document M7-A5 [ISBN 1-56238-394-9]. NCCLS, 940 West Valley Road, Suite 1400, Wayne, Pa. 19087-1898 USA, 2000). The MIC of the compounds of the invention is determined in the liquid dilution test on the 96-well microtiter plate scale. The bacterial microbes are cultivated in a minimal medium (18.5 mM Na2HPO4, 5.7 mM KH2PO4, 9.3 mM NH4Cl, 2.8 mM MgSO4, 17.1 mM NaCl, 0.033 μg/ml thiamine hydrochloride, 1.2 μg/ml nicotinic acid, 0.003 μg/ml biotin, 1% glucose, 25 μg/ml of each proteinogenic amino acid with the exception of phenylalanine; [H.-P. Kroll; unpublished]) with the addition of 0.4% BH broth (test medium). In the case of Enterococcus faecium L4001, heat-inactivated fetal calf serum (FCS; GibcoBRL, Germany) is added to the test medium in a final concentration of 10%. Overnight cultures of the test microbes are diluted to an OD578 of 0.001 (to 0.01 in the case of enterococci) in fresh test medium, and incubated 1:1 with dilutions of the test substances (1:2 dilution steps) in test medium ([…]). The cultures are incubated at 37° C. for 18-24 hours; enterococci in the presence of 5% CO2.
(§3) The lowest substance concentration in each case at which no visible bacterial growth occurs any longer is defined as the MIC.
(§4) The minimum inhibitory concentration (MIC) is the minimum concentration of an antibiotic with which the growth of a test microbe is inhibited over 18-24 h. The inhibitor concentration can in these cases be determined by standard microbiological methods with modified medium in an agar dilution test (see, for example, The National Committee for Clinical Laboratory Standards. Methods for dilution antimicrobial susceptibility tests for bacteria that grow aerobically; approved standard-fifth edition. NCCLS document M7-A5 [ISBN 1-56238-394-9]. NCCLS, 940 West Valley Road, Suite 1400, Wayne, Pa. 19087-1898 USA, 2000). The bacterial microbes are cultivated on 1.5% agar plates which contain 20% defibrinated horse blood. […]

[2] = system: E. faecium L4001; experiment: Minimum inhibitory concentration (MIC), E. faecium L4001; format: cell-based, Enterococcus faecium; conditions: Enterococcus faecium, L4001, read-out: MIC E. faecium L4001
Description: as §2, §3

[3] = target: S. aureus 133 Translation; experiment: S. aureus in vitro transcription-translation assay (firefly luciferase, S30 extract); format: biochemical; conditions: 50% inhibition of the translation of firefly luciferase
Description: For the construction of a reporter plasmid which can be used in an in vitro transcription-translation assay from S. aureus the plasmid pBESTluc (Promega Corporation, USA) is used. The E. coli tac promoter present in this plasmid in front of the firefly luciferase is replaced by the capA1 promoter with corresponding Shine-Dalgarno sequence from S. aureus. The primers CAPFor 5′-[…]-[…] GCCA-3′ and CAPRev 5′-[…]-3′ are used for this. The primer CAPFor contains the capA1 promoter, the ribosome binding site and the 5′ region of the luciferase gene. After PCR using pBESTluc as template it is possible to isolate a PCR product which contains the firefly luciferase gene with the fused capA1 promoter. This is, after restriction with ClaI and HindIII, ligated into the vector pBESTluc which has likewise been digested with ClaI and HindIII. The resulting plasmid pla can be replicated in E. coli and be used as template in the S. aureus in vitro transcription-translation test.
Six litres of BHI medium are inoculated with a 250 ml overnight culture of an S. aureus Strain and allowed to grow at 37° C. until the OD600 nm is 2-4. The cells are harvested by centrifugation and washed in 500 ml of cold buffer A (10 mM Tris acetate, pH 8.0, 14 mM magnesium acetate, 1 mM DTT, 1 M KCl). After renewed centrifugation, the cells are washed in 250 ml of cold buffer A with 50 mM KCl, and the resulting pellets are frozen at −20° C. for 60 min. The pellets are thawed on ice in 30 to 60 min and taken up to a total volume of 99 ml in buffer B (10 mM Tris acetate, pH 8.0, 20 mM magnesium acetate, 1 mM DTT, 50 mM KCl). 1.5 ml portions of lysostaphin (0.8 mg/ml) in buffer B are provided in 3 precooled centrifuge cups and each mixed with 33 ml of the cell suspension. The samples are incubated at 37° C., shaking occasionally, for 45 to 60 min, before 150 μl of a 0.5 M DTT solution are added. The lysed cells are centrifuged at 30 000×g and 4° C. for 30 min. The cell pellet is taken up in buffer B and then centrifuged again under the same conditions, and the collected supernatants are combined. The supernatants are centrifuged again under the same conditions, and 0.25 volumes of buffer C (670 mM Tris acetate, pH 8.0, 20 mM magnesium acetate, 7 mM Na3 phosphoenolpyruvate, 7 mM DTT, 5.5 mM ATP, 70 μM amino acids (complete from Promega), 75 μg of pyruvate kinase (Sigma, Germany)/ml are added to the upper ⅔ of the supernatant. The samples are incubated at 37° C. for 30 min. The supernatants are dialysed against 2 l of dialysis buffer (10 mM Tris acetate, pH 8.0, 14 mM magnesium acetate, 1 mM DTT, 60 mM potassium acetate) in a dialysis tube with a 3500 Da cut-off with one buffer change at 4° C. overnight. The dialysate is concentrated to a protein concentration of about 10 mg/ml by
covering the dialysis tube with cold PEG 8000 powder (Sigma, Germany) at 4° C. The S30 extracts can be stored in aliquots at −70° C.
The inhibition of protein biosynthesis of the compounds can be shown in an in vitro transcription-translation assay. The assay is based on the cell-free transcription and translation of firefly luciferase using the reporter plasmid pla as template and cell-free S30 extracts obtained from S. aureus. The activity of the resulting luciferase can be detected by luminescence measurement.
The amount of S30 extract or plasmid pla to be employed must be tested anew for each preparation in order to ensure an optimal concentration in the test. […] of the substance to be tested, dissolved in 5% DMSO, are introduced into an MTP. Then […] of a suitably concentrated plasmid solution pla are added. […]

[4] = system: S. aureus T17; experiment: Minimum inhibitory concentration (MIC), biphenomycin-resistant S. aureus T17; format: cell-based, Staphylococcus aureus; conditions: Staphylococcus aureus; biphenomycin-resistant S. aureus T17
Description: as §1, §2, §3, §4

[5] = system: S. aureus 133; experiment: Systemic infection with S. aureus 133 (mouse sepsis model); format: in vivo, mouse (female CFW1); conditions: i.p. infection with S. aureus 133, i.v. therapy 30 minutes after infection, survival recorded for 6 days
Description: For this purpose, S. aureus 133 cells are cultured overnight in BH broth (Oxoid, Germany). The overnight culture was diluted 1:100 in fresh BH broth and expanded for 3 hours. The bacteria which are in the logarithmic phase of growth are centrifuged and washed twice with a buffered physiological saline solution. A cell suspension in saline solution with an extinction of 50 units is then adjusted in a photometer (Dr Lange LP 2W). After a dilution step (1:15), this suspension is mixed 1:1 with a 10% mucine suspension. 0.2 ml of this infection solution is administered i.p. per 20 g of mouse. This corresponds to a cell count of about 1-2×10^6 microbes/mouse. The i.v. therapy takes place 30 minutes after the infection. Female CFW1 mice are used for the infection experiment. The survival of the animals is recorded for 6 days. The animal model is adjusted so that untreated animals die within 24 h after the infection.

## NCCC[C@H](N)CNC(=O)CNC(=O)[C@@H]1Cc2cccc(c2)-c2ccc(O)c(c2)C[C@H](N)C(=O)N[C@@H](C[C@@H](O)CN)C(=O)N1 [Example 2, (8S,11S,14S)-14-Amino-11-[(2R)-3-amino-2-hydroxypropyl]-N-(2-{[(2S)-2,5-diaminopentyl]-amino}-2-oxoethyl)-17-hydroxy-10,13-dioxo-9,12-diazatricyclo[14.3.1.1^2,6]henicosa-1(20),2(21),3,5,16,18-hexaene-8-carboxamide tetrahydrochloride]
[1]
  MIC: 1 µg/mL
[2]
  MIC: 2 µg/mL
[3]
  IC50: 70 nM
[4]
  MIC: 1 µg/mL
[5]
  therapeutic effect ED100: 1.25 mg/kg
